≈ marks a conversion by molar mass, not a printed value.
Tests used:
[1] = test system: C. lusitaniae MUM 17.08; experiment: MIC, CLSI M27 broth microdilution; type: cell-based, Candida lusitaniae; details: Clavispora lusitaniae, MUM17.08; C. lusitaniae MUM 17.08; EOs and terpenes; 24 h; top concentration 256 µg/mL; read-out: GM MIC
Excerpt: (§1) The fungal strains used in this study were C. albicans ATCC 10231, C. albicans ATCC 64550, C. parapsilosis ATCC 22019, C. tropicalis ATCC 750, C. tropicalis ATCC 200956 (resistant to azoles and AMB), C. glabrata LMDM 34 (resistant to echinocandins), C. metapsilosis MUM 15.12, C. orthopsilosis MUM 17.13, C. lusitaniae MUM 17.08, C. krusei ATCC 6258 (Issatchenkia orientalis ATCC 6258), and C. auris CDC B11903. Additionally, nine clinical isolates were included: C. parapsilosis Synlab 406 (FLC-resistant) and eight C. auris isolates identified by MALDI-TOF MS (Bruker Daltonics, Bremen, Germany) according to Zhao et al.. These yeasts were cultured on Sabouraud Dextrose Agar (SDA; Sigma-Aldrich, St. Louis, MO, USA) for 24 h at 35 °C.
(§2) Antifungal susceptibility testing was performed according to Clinical and Laboratory Standards Institute M27, 4th Edition (CLSI standard M27, 4th Edition). Some modifications were applied for evaluation of the antifungal activity of EOs and terpenes. Initially, a screening was carried out to determine the antifungal activity of the EOs and of commercial terpenes. Stock concentrations of EOs and terpenes were prepared at 512 µg/mL and an inoculum of 2.5 × 10^3 CFU/mL of each yeast was prepared in RPMI 1640-MOPS (Sigma- Aldrich St. Louis, MO, USA). Thereafter, 100 µL of each stock solution of EOs or terpenes was dispensed in 96-well microdilution plates (Corning®, Costar®, NY, USA) and 100 µL of each yeast inoculum was added. […] Microdilution plates were incubated at 35 °C and, after 24 h, the presence or absence of growth was visually checked using a manual mirror viewer and then compared with the amount of growth in the control (no EO or terpene). Compounds able to inhibit yeast growth were tested to determine the minimal inhibitory concentration (MIC) as follows: 100 µL of 10 two-fold dilutions of the EOs or commercial terpenes was dispensed in 96-well microplates and the yeast inoculum was added. Final concentrations of the EOs or terpenes ranged from 0.5 µg/mL to 256 µg/mL. Microdilution plates were incubated at 35 °C for 24 h. MICs were visually determined at the lowest concentration that produced visual inhibition compared to the growth control. The assays were performed at least three times in duplicate on different days. The results were expressed as geometric means (GM) and ranges. As an antifungal susceptibility testing control, the activity of ITC and AMB against the reference strains C. krusei ATCC 6258 and C. parapsilosis ATCC 22019 was evaluated in all experiments following the CLSI standard M27, 4th Edition. It was mandatory that the MIC values remained in the accepted range.

[2] = test system: C. krusei ATCC 6258; experiment: MIC, CLSI M27 broth microdilution; type: cell-based, Candida krusei; details: C. krusei ATCC 6258, EOs and terpenes
Excerpt: as §1, §2

[3] = test system: C. tropicalis ATCC 200956; experiment: MIC, CLSI M27 broth microdilution; type: cell-based, Candida tropicalis; details: C. tropicalis ATCC 200956, EOs and terpenes
Excerpt: as §1, §2

[4] = test system: C. orthopsilosis MUM 17.13; experiment: MIC, CLSI M27 broth microdilution; type: cell-based, Candida orthopsilosis; details: Lodderomyces orthopsilosis, MUM17.13; C. orthopsilosis MUM 15.12 (Table 3); EOs and terpenes; 24 h; top concentration 256 µg/mL; read-out: GM MIC
Excerpt: as §1, §2

[5] = test system: C. metapsilosis MUM 15.12; experiment: MIC, CLSI M27 broth microdilution; type: cell-based, Candida metapsilosis; details: Lodderomyces metapsilosis, MUM15.12; C. metapsilosis MUM 17.13 (Table 3); EOs and terpenes; 24 h; top concentration 256 µg/mL; read-out: GM MIC
Excerpt: as §1, §2

[6] = test system: C. auris Ca 45; experiment: MIC, CLSI M27 broth microdilution; type: cell-based, Candida auris; details: Candidozyma auris, CA45; C. auris Ca 45; EOs and terpenes; 24 h; top concentration 256 µg/mL; read-out: GM MIC
Excerpt: as §1, §2

[7] = test system: C. auris Ca 17; experiment: MIC, CLSI M27 broth microdilution; type: cell-based, Candida auris; details: Candidozyma auris, CA17; C. auris Ca 17; EOs and terpenes; 24 h; top concentration 256 µg/mL; read-out: GM MIC
Excerpt: as §1, §2

[8] = test system: C. auris Ca 9; experiment: MIC, CLSI M27 broth microdilution; type: cell-based, Candida auris; details: Candidozyma auris, CA9; C. auris Ca 9; EOs and terpenes; 24 h; top concentration 256 µg/mL; read-out: GM MIC
Excerpt: as §1, §2

[9] = test system: C. auris Ca 13; experiment: MIC, CLSI M27 broth microdilution; type: cell-based, Candida auris; details: Candidozyma auris, CA13; C. auris Ca 13; EOs and terpenes; 24 h; top concentration 256 µg/mL; read-out: GM MIC
Excerpt: as §1, §2

[10] = test system: C. auris Ca 32; experiment: MIC, CLSI M27 broth microdilution; type: cell-based, Candida auris; details: Candidozyma auris, CA32; C. auris Ca 32; EOs and terpenes; 24 h; top concentration 256 µg/mL; read-out: GM MIC
Excerpt: as §1, §2

[11] = test system: C. auris CDC B11903; experiment: MIC, CLSI M27 broth microdilution; type: cell-based, Candida auris; details: Candidozyma auris, CDCB11903; C. auris CDC B11903; EOs and terpenes; 24 h; top concentration 256 µg/mL; read-out: GM MIC
Excerpt: as §1, §2

[12] = test system: C. auris Ca 41; experiment: MIC, CLSI M27 broth microdilution; type: cell-based, Candida auris; details: Candidozyma auris, CA41; C. auris Ca 41; EOs and terpenes; 24 h; top concentration 256 µg/mL; read-out: GM MIC
Excerpt: as §1, §2

[13] = test system: C. auris Ca 46; experiment: MIC, CLSI M27 broth microdilution; type: cell-based, Candida auris; details: Candidozyma auris, CA46; C. auris Ca 46; EOs and terpenes; 24 h; top concentration 256 µg/mL; read-out: GM MIC
Excerpt: as §1, §2

[14] = test system: C. parapsilosis Synlab 406; experiment: MIC, CLSI M27 broth microdilution; type: cell-based, Candida parapsilosis; details: Lodderomyces parapsilosis, SYNLAB406; C. parapsilosis Synlab 406; EOs and terpenes; 24 h; top concentration 256 µg/mL; read-out: GM MIC
Excerpt: as §1, §2

[15] = Cytotoxicity, MTT assay; details: human, HaCaT keratinocyte cells
Experimental: Cells were cultured in Dulbecco’s Modified Eagle Medium (DMEM; Sigma-Aldrich, St. Louis, MO, USA) supplemented with 10% fetal bovine serum (Invitrogen, Carlsbad, CA, USA), 1% penicillin, streptomycin, and neomycin (Invitrogen, Carlsbad, CA, USA), and 1% L-glutamine (Invitrogen, Carlsbad, CA, USA) at 37 °C in a humidified atmosphere of 5% CO2. […] Afterwards, the culture medium was removed and 3-(4.5-dimethylthiazol-2-yl)-2.5-diphenyltetrazolium bromide (MTT) (Sigma-Aldrich, St. Louis, MO, USA) at 5 mg/mL was added at 37 °C for 2 h. Subsequently, DMSO was added to dissolve the formazan crystals. Finally, the absorbances were measured with a Multiskan SkyHigh Microplate Spectrophotometer (Thermo Fisher Scientific, Waltham, MA, USA) at λ = 570 nm. The CC50 values were obtained by linear regression analysis with concentration–response curves, which were performed with absorbance data using GraphPad Prism software (Prism 9.3.0, San Diego, CA, USA). The assays were conducted at two separate times in triplicate. The data were expressed as means.

MIC [1]: 256 µg/mL (≈ 1910 µM)
Range MIC [2]: 128 to 256 µg/mL
MIC ([2]; Pichia kudriavzevii, ATCC6258, 24 h, top concentration 256 µg/mL, read-out: GM MIC): 181 µg/mL (≈ 1350 µM)
Range MIC [3]: 128 to 256 µg/mL
MIC ([3]; Candida tropicalis, ATCC200956, 24 h, top concentration 256 µg/mL, read-out: GM MIC): 181 µg/mL (≈ 1350 µM)
MIC [4]: 256 µg/mL (≈ 1910 µM)
MIC [5]: 256 µg/mL (≈ 1910 µM)
MIC [6]: 256 µg/mL (≈ 1910 µM)
MIC [7]: 256 µg/mL (≈ 1910 µM)
MIC [8]: 256 µg/mL (≈ 1910 µM)
MIC [9]: 256 µg/mL (≈ 1910 µM)
MIC [10]: 128 µg/mL (≈ 954 µM)
MIC [11]: 256 µg/mL (≈ 1910 µM)
MIC [12]: 256 µg/mL (≈ 1910 µM)
MIC [13]: 256 µg/mL (≈ 1910 µM)
MIC [14]: 256 µg/mL (≈ 1910 µM)
SMILES: Cc1ccc(C(C)C)cc1 [p-Cymene, p-cymene]
CC50 at 24 h [15]: 831 µg/mL (≈ 6190 µM)
